The subject of one test is SREBP pathway. Briefly: SREBP luciferase reporter gene system (SRE-luciferase assay). Particulars: Huh-7/SRE-luc cells, sterol-deficient medium, 0.01-10 µM. The test is classed as cell-based, human. The procedure, abridged:
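Huh-7 cells stably carrying LDLR promoter-luciferase plus GFP were treated 16 h in sterol-deficient medium (5% lipoprotein-deficient serum, 2 µM lovastatin, 10 µM mevalonic acid) at 0.01–10 µM. Luciferase/GFP ratio measured as pathway activity; inhibition versus DMSO fitted to a four-parameter model for IC50.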

Test [1] concerns Fatty Acid Synthase (FASN) gene. The experiment in a line: Inhibition of FASN gene expression (qPCR) in Huh-7 cells. Particulars: Homo sapiens, Huh-7, 16 h, read-out: FASN IC50. The test is classed as cell-based, human. The gist of the method:
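Huh-7 cells switched to starvation DMEM (5% LPDS, 2 µM lovastatin, 10 µM mevalonate) and treated 16 h with compound, top 3000 nM, 3-fold dilutions, 5 concentrations. FASN mRNA by RT-qPCR; inhibition relative to DMSO, IC50 from four-parameter fit.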
On the technique in general: In qPCR the cycle at which signal appears reflects the starting amount.

[2] abbreviates: Huh-7 cells, starvation medium, 16 hours, qPCR, class symbols.

Read-outs that look alike come from different tables or passages of the source.

For orientation: IC50 means the concentration at which inhibition is half-maximal.

As to `C[C@H](CCCC(O)c1ccc(F)cc1F)[C@H]1CC[C@H]2[C@H]3[C@H](CC[C@]12C)[C@@]1(C)CC[C@H](O)[C@H](O)[C@@H]1CC3(F)F` (stereo partly drawn) [Compound 102, (1R,3aS,3bS,5aR,6R,7S,9aR,9bS,11aR)-1-[(2R)-6-(2,4-difluorophenyl)-6-hydroxyhexan-2-yl]-4,4-difluoro-9a,11a-dimethylhexadecahydro-1H-cyclopenta[1,2-a]phenanthrene-6,7-diol], the IC50 in the test with SREBP pathway (Homo sapiens, Huh-7, 16 h) is 0.14 µM; in test [1] (setting [2]) it was under 0.2 µM.

Turning to `C[C@H](CCCC(O)c1cccnc1)[C@H]1CC[C@H]2[C@H]3[C@H](CC[C@]12C)[C@@]1(C)CC[C@H](O)[C@H](O)[C@@H]1CC3(F)F` (stereo partly drawn) [Compound 54, (1R,3aS,3bS,5aR,6R,7S,9aR,9bS,11aR)-4,4-difluoro-1-[(2R)-6-hydroxy-6-(pyridin-3-yl)hexan-2-yl]-9a,11a-dimethylhexadecahydro-1H-cyclopenta[1,2-a]phenanthrene-6,7-diol], the IC50 in the test with SREBP pathway (Homo sapiens, Huh-7, 16 h) was 0.35 µM; in test [1] (setting [2]) it was 0.2 to 0.5 µM.

For `COc1ncccc1C(O)CCC[C@@H](C)[C@H]1CC[C@H]2[C@H]3[C@H](CC[C@]12C)[C@@]1(C)CC[C@H](O)[C@H](O)[C@@H]1CC3(F)F` (single isomer, unassigned) [Compound 192, (1R,3aS,3bS,5aR,6R,7S,9aR,9bS,11aR)-4,4-difluoro-1-[(2R,6S)-6-hydroxy-6-(^2-methoxypyridin-3-yl)hexan-2-yl]-9a,11a-dimethylhexadecahydro-1H-cyclopenta[1,2-a]phenanthrene-6,7-diol or (1R,3aS,3bS,5aR,6R,7S,9aR,9bS,11aR)-4,4-difluoro-1-[(2R,6R)-6-hydroxy-6-(2-methoxypyridin-3-yl)hexan-2-yl]-9a,11a-dimethylhexadecahydro-1H-cyclopenta[1,2-a]phenanthrene-6,7-diol], the IC50 was 0.053 µM with SREBP pathway (Homo sapiens, Huh-7, 16 h) and 0.2 to 0.5 µM in test [1] (setting [2]).

With `COc1cc(Cl)ccc1[C@H](O)CCC[C@@H](C)[C@H]1CC[C@H]2[C@H]3[C@H](CC[C@]12C)[C@@]1(C)CC[C@H](O)[C@H](O)[C@@H]1CC3(F)F` [Compound 113, (1R,3aS,3bS,5aR,6R,7S,9aR,9bS,11aR)-1-[(2R,6R)-6-(4-chloro-2-methoxyphenyl)-6-hydroxyhexan-2-yl]-4,4-difluoro-9a,11a-dimethylhexadecahydro-1H-cyclopenta[1,2-a]phenanthrene-6,7-diol], the IC50 in the test with SREBP pathway (Homo sapiens, Huh-7, 16 h) was 0.228 µM; in test [1] (setting [2]), 0.2 to 0.5 µM.

Turning to `C[C@H](CCCC(O)c1cccc(OC(F)(F)F)c1)[C@H]1CC[C@H]2[C@H]3[C@H](CC[C@]12C)[C@@]1(C)CC[C@H](O)[C@H](O)[C@@H]1CC3(F)F` (single isomer, unassigned) [Compound 191, (1R,3aS,3bS,5aR,6R,7S,9aR,9bS,11aR)-4,4-difluoro-1-[(2R,6R)-6-hydroxy-6-{3-[(trifluoromethyl)oxy]phenyl}hexan-2-yl]-9a,11a-dimethylhexadecahydro-1H-cyclopenta[1,2-a]phenanthrene-6,7-diol or (1R,3aS,3bS,5aR,6R,7S,9aR,9bS,11aR)-4,4-difluoro-1-[(2R,6S)-6-hydroxy-6-(2-methoxypyridin-3-yl)hexan-2-yl]-9a,11a-dimethylhexadecahydro-1H-cyclopenta[1,2-a]phenanthrene-6,7-diol], the results for the 50% inhibitory concentration (IC50) (in the test with SREBP pathway (16 hours); in test [1] (setting [2])) were 0.246 µM and 0.2 to 0.5 µM, respectively.

For the molecule `COc1cccc(F)c1C(CCC[C@@H](C)[C@H]1CC[C@H]2[C@H]3[C@H](CC[C@]12C)[C@@]1(C)CC[C@H](O)[C@H](O)[C@@H]1CC3(F)F)=NO` (single isomer, unassigned) [Compound 210, [(1E,5R)-5-[(1R,3aS,3bS,5aR,6R,7S,9aR,9bS,11aR)-4,4-difluoro-6,7-dihydroxy-9a,11a-dimethylhexadecahydro-1H-cyclopenta[1,2-a]phenanthren-1-yl]-1-(2-fluoro-6-methoxyphenyl)hexylidene]hydroxylamine or [(1Z,5R)-5-[(1R,3aS,3bS,5aR,6R,7S,9aS,9bS,11aR)-4,4-difluoro-6,7-dihydroxy-9a,9b,11a-trimethylhexadecahydro-1H-cyclopenta[1,2-a]phenanthren-1-yl]-1-(2-fluoro-6-methoxyphenyl)hexylidene]hydroxylamine], the IC50 with SREBP pathway (16 hours) was 0.017 µM; in test [1] it was under 0.2 µM.

Consider `COc1nc(F)ccc1[C@H](O)CCC[C@@H](C)[C@H]1CC[C@H]2[C@H]3[C@H](CC[C@]12C)[C@@]1(C)CC[C@H](O)C(=O)[C@@H]1CC3(F)F` (single isomer, unassigned) [Compound 260], for which the 50% inhibitory concentration (IC50) in the test on SREBP pathway (Homo sapiens, Huh-7, 16 h) is 0.03 µM; in test [1] (setting [2]), under 0.2 µM.

Turning to `COc1ccnc(OC)c1C(O)CCC[C@@H](C)[C@H]1CC[C@H]2[C@H]3[C@H](CC[C@]12C)[C@@]1(C)CC[C@H](O)[C@H](O)[C@@H]1CC3(F)F` (single isomer, unassigned) [Compound 171, (1R,3aS,3bS,5aR,6R,7S,9aR,9bS,11aR)-1-[(2R,6S)-6-(2,4-dimethoxypyridin-3-yl)-6-hydroxyhexan-2-yl]-4,4-difluoro-9a,11a-dimethylhexadecahydro-1H-cyclopenta[1,2-a]phenanthrene-6,7-diol or (1R,3aS,3bS,5aR,6R,7S,9aR,9bS,11aR)-1-[(2R,6R)-6-(2,4-dimethoxypyridin-3-yl)-6-hydroxyhexan-2-yl]-4,4-difluoro-9a,11a-dimethylhexadecahydro-1H-cyclopenta[1,2-a]phenanthrene-6,7-diol], the IC50 with SREBP pathway (16 hours) is 0.013 µM; in test [1] (setting [2]), under 0.2 µM.

Turning to `COc1nc(F)cc(F)c1C(O)CCC[C@@H](C)[C@H]1CC[C@H]2[C@H]3[C@H](CC[C@]12C)[C@@]1(C)CC[C@H](O)[C@H](O)[C@@H]1CC3(F)F` (stereo partly drawn) [Compound 206, (1R,3aS,3bS,5aR,6R,7S,9aR,9bS,11aR)-1-[(2R)-6-(4,6-difluoro-2-methoxypyridin-3-yl)-6-hydroxyhexan-2-yl]-4,4-difluoro-9a,11a-dimethylhexadecahydro-1H-cyclopenta[1,2-a]phenanthrene-6,7-diol], the 50% inhibitory concentration (IC50) in the test with SREBP pathway (Homo sapiens, Huh-7, 16 h) was 0.145 µM; in test [1] (setting [2]), 0.2 to 0.5 µM.

On to `C[C@H](CCCC(O)c1ccc(F)nc1F)[C@H]1CC[C@H]2[C@H]3[C@H](CC[C@]12C)[C@@]1(C)CC[C@H](O)[C@H](O)[C@@H]1CC3(F)F` (single isomer, unassigned) [Compound 227, (1R,3aS,3bS,5aR,6R,7S,9aR,9bS,11aR)-1-[(2R,6R)-6-(2,6-difluoropyridin-3-yl)-6-hydroxyhexan-2-yl]-4,4-difluoro-9a,11a-dimethylhexadecahydro-1H-cyclopenta[1,2-a]phenanthrene-6,7-diol or (1R,3aS,3bS,5aR,6R,7S,9aR,9bS,11aR)-1-[(2R,6S)-6-(2,6-difluoropyridin-3-yl)-6-hydroxyhexan-2-yl]-4,4-difluoro-9a,11a-dimethylhexadecahydro-1H-cyclopenta[1,2-a]phenanthrene-6,7-diol], for which the IC50 in the test with SREBP pathway (16 hours) was 0.014 µM; in test [1] (setting [2]) it was 0.2 to 0.5 µM.

As to `COc1cc(F)c([C@@H](O)CCC[C@@H](C)[C@H]2CC[C@H]3[C@H]4[C@H](CC[C@]23C)[C@@]2(C)CC[C@H](O)[C@H](O)[C@@H]2CC4(F)F)c(F)c1Br` (single isomer, unassigned) [Compound 198], the IC50 was 0.058 µM with SREBP pathway (Homo sapiens, Huh-7, 16 h) and under 0.2 µM in test [1] (setting [2]).

The record behind these values is patent EP4752152A1, “STEROID COMPOUND, AND PREPARATION METHOD THEREFOR AND USE THEREOF” (Cholesgen (Shanghai) Co.Ltd., priority 2023, dated 2025).
